From patent publication US7658727B1, “Implantable medical device with enhanced biocompatibility and biostability” (Medtronic, Inc, priority 1998, dated 2010)

Experiments:
Format in all cases: cell-based
[1] = system: human Mo/MØs; assay: Surface analysis (OM/SEM) for environmental stress cracking after macrophage/FeCl2 treatment; conditions: AS PEU exposed to Mo/MØs plus DSP followed by FeCl2
Method: Macrophage Treatment. The PEU film specimens (AS and non-AS) in the microwell plates were covered with either freshly isolated human or rabbit monocyte-derived macrophage (Mo/MØs), or human lymphocytes (3×10^5 cells per well) and cultured in a standard media (RPMI-1640, 10% Fetal bovine serum, […], 10 Ul/ml Penicillin-G and 0.1 mg/ml Streptomycin). A 49-day macrophage treatment was conducted under standard conditions (i.e., presence of 5% CO2, and 95% humidity at 37° C.). […] Two blank conditions were also studied. In one, culture media only was placed into the microwells. The other was prepared with no culture media and stored in the dark. All polymer specimens were incubated for the time of the first treatment. Samples in triplicate were removed after various time periods for hydroperoxide determination. After a 49-day incubation, specimens were prepared in triplicate for the second step of the sample treatment protocol.
FeCl2 treatment. […]
(§1) The polymer films (0.12 mm thick) were sufficiently thin and transparent to enable visualization of cells on their surfaces during cell culturing using optical microscopy (OM) with an Olympus BX40 light microscope. […] The polymer surfaces were also evaluated using SEM following the 10-day treatment with FeCl2. […]

[2] = system: human monocyte-derived macrophage (Mo/MØs); assay: Morphology of Mo/MØ monolayers on polyetherurethane (OM, SEM); conditions: Mo/MØs cultured on PEU with DSP in culture media
Method: Human and rabbit blood was used as sources of the cells in these experiments. Blood was anticoagulated with 2 units/ml sodium heparin (Upjohn Co., Kalamazoo, MI). Mononuclear cells (lymphocytes, monocytes) were isolated within 15 minutes by a one-step density gradient centrifugation procedure using Isopaque-1077 (a density gradient solution) according to a modified Boyum's method (Boyum et al., Blood Separation and Plasma Fractionation, 217-239, Wiley-Liss, Inc. (1991)). The mononuclear cells were harvested and washed twice with cold Hanks balanced salt solution (HBSS) without Ca^2+ and Mg^2+ to minimize cell aggregation. The cells were then resuspended in standard media (RPMI-1640, 10% Fetal bovine serum, […], 10 Ul/ml Penicillin-G, and 0.1 mg/ml Streptomycin). The cell suspension was seeded into several plastic tissue culture flasks and incubated in the presence of 5% CO2 at 37° C. for 1 hour (Ackerman et al., J. Immunol., 20, 1372-1374 (1978)). After this incubation, adherent (monocytes) were gently scrapped from the surface and resuspended in standard media. […]
as §1

[3] = system: IL-8; assay: In vitro expression of IL-8 in human primary monocytes; conditions: DEX 2.5, 0.25, 0.025 μg/ml; methotrexate 50, 5, 0.5 μg/ml
Method: (§2) In order to assess the in vitro expression of IL-1α and IL-8, human primary monocytes were incubated with various concentrations of DEX (2.5, 0.25, and 0.025 μg/ml) and methotrexate (50, 5, and 0.5 μg/ml).

[4] = system: IL-1α; assay: In vitro expression of IL-1α in human primary monocytes; conditions: DEX 2.5, 0.25, 0.025 μg/ml; methotrexate 50, 5, 0.5 μg/ml
Method: as §2

SMILES | surface damage (SEM) after FeCl2 [1] | cell size of Mo/MØ monolayers (OM) [2] | IL-8 inhibition [3] | IL-1 inhibition [4]
C[C@@H]1C[C@H]2[C@@H]3CCC4=CC(=O)C=C[C@]4(C)[C@@]3(F)[C@@H](O)C[C@]2(C)[C@@]1(O)C(=O)COP(=O)(O)O [DSP, dexamethasone sodium phosphate] | only very occasional pits | no increase in cell size | – | –
CN(Cc1cnc2nc(N)nc(N)c2n1)c1ccc(C(=O)N[C@@H](CCC(=O)O)C(=O)O)cc1 [methotrexate] | – | – | higher rate of IL-1 and IL-8 inhibition | higher rate of IL-1 and IL-8 inhibition
